Laboratory results from patent publication US4629723A, “Potent thymopentin analogs” (Ortho Pharmaceutical Corporation, priority 1984, dated 1986).
Non-standard residues stand in square brackets, D forms with d. Residues, ends and D or L forms follow the SMILES beside them. No end group written: not given here. Aib = CC(C)(N)C(=O)O

Legend:
[1] = test system: intact CEM cell; experiment: Cyclic-GMP assay; assay type: cell-based, human; conditions: for Concentration of c-GMP Produced: CEM cells, 4-5 min, 37° C.; for Result on the cyclic-GMP assay in words: in comparison with thymopentin
Text: This biological activity is evidenced by an assay measuring induction of cyclic-GMP production in a human T-cell line in comparison with thymopoietin. The induction of c-GMP production by a test peptide in this assay indicates the ability of the test peptide to bind to the thymopoietin receptor site on the cell and induce thymopoietin-like biological activity. […] Because of the expense of preparing peptides and the rapid degradation of peptides often observed in living systems, peptides such as those herein which have increased potency are greatly prized.
This assay measures the ability of the test peptide to bind to the cell membrane receptor of the intact CEM cell and selectively stimulate production of cyclic-GMP, as does thymopoietin itself.
The CEM cell line was obtained from the American Type Culture Collection and was cultured in RPMI-1640 medium supplemented with 10% heat-inactivated fetal bovine serum, 10% heat-inactivated horse serum, 2 mM L-glutamine, and 50 µg/ml gentamycin at 37° C. in a humid atmosphere containing 5 percent CO2, to a final density of 3-4×10^6 cells/ml. At this concentration, the cells were in the early stationary phase of the growth curve and were judged greater than 90% viable by trypan blue exclusion. The cells were grown for four days and harvested. After harvesting, the cells were washed three times in PBS and were resuspended in RPMI-1640 medium at a concentration of 3.12×10^7 cells/ml. After the cells had been allowed to equilibrate at 37° C. for 30 min, various concentrations of the test peptides were added in a volume of 25 μl of medium to 1 ml of cells, the initial concentration of test compound added being selected to yield the desired final concentration of test peptide in the medium. The test peptide was mixed instantly with the cell suspension. The incubation was allowed to proceed in a shaking water bath at 37° C. for 4-5 min and was then terminated by addition of ice-cold trichloroacetic acid (10%; 1 ml).
The cells in TCA were then homogenized and sonicated to release cyclic nucleotide. The resulting suspension was centrifuged at 3000 g for 20 min at 4° C. and the resulting precipitate was dissolved in 0.1N NaOH and sonicated for a further 30 minutes, after which the protein content was determined by the method of Cadman, et al., Anal. Biochem., 96, 21-23 (1979). The TCA was removed from the supernatant fraction by extracting four times with 5 ml of water-saturated diethyl ether. After the final extraction, the remaining traces of ether were removed from the supernatant fraction by heating it for 10 min in a 50° C. water bath. After lyophilization of the extracted supernatant fraction, it was reconstituted in 50 mM acetate buffer, ph 6.2, for radioimmunoassay of cyclic nucleotide using the assay kit NEX-133, New England Nuclear, Boston, MA 02113.
A conventional competition radioimmunoassay against radio labelled cyclic GMP was conducted to determine the amount of cyclic GMP induced by each concentration of test peptide. Results are shown in FIG. 1 and in the following table, in which representative subject peptides have been assayed in comparison with thymopentin (designated "TP-5") and a "nonsense" peptide H-ASP-ARG-TYR-LYS-VAL-OH.

[2] = test system: isolated thymopoietin cell surface receptor protein from CEM cells; conditions: for Displacement of 125I-TP relative to that caused by thymopoietin self-displacement: at equivalent concentrations, 2.3×10^-10 M 125I-TP, 4 μg receptor protein, with TP 37-45 nonapeptide, 12 h; for Displacement of 125I-TP, in words: comparison peptides, competition experiments
[3] = Concentration of Peptide 10^0 μg/ml
[4] = Concentration of Peptide 10^1 μg/ml
[5] = Concentration of Peptide 10^3 μg/ml
[6] = Concentration of Peptide 10^4 μg/ml

Q: Which “Concentration of c-GMP Produced” value [1, 3] does the source give for `CC(C)[C@H](NC(=O)[C@H](CC(=O)O)NC(=O)[C@@H]1CCCN1C(=O)[C@@H](N)CCCNC(=N)N)C(=O)N[C@@H](Cc1ccccc1)C(=O)O` [H--ARG--PRO--ASP--VAL--PHE--OH, Arginyl-Prolyl-Aspartyl-Valyl-Phenylalanine] (H-RPDVF-OH) here?
A: 0 picomoles/ml

Q: What about the “Concentration of c-GMP Produced” value [1, 4] of the same compound?
A: 12 picomoles/ml

Q: And the “Displacement of 125I-TP relative to that caused by thymopoietin self-displacement” value [2]?
A: at least 50%

Q: With `CC(C)[C@H](NC(=O)[C@H](CCCCN)NC(=O)[C@H](Cc1ccc(O)cc1)NC(=O)[C@H](CCCNC(=N)N)NC(=O)[C@@H](N)CC(=O)O)C(=O)O` [H--ASP--ARG--TYR--LYS--VAL--OH, H-ASP-ARG-TYR-LYS-VAL-OH, reference compound] (H-DRYKV-OH) as the compound, how does the “Concentration of c-GMP Produced” value [1, 5] read?
A: 0 picomoles/ml

Q: And the “Concentration of c-GMP Produced” value [1, 6]?
A: 0 picomoles/ml

Q: And the “Concentration of c-GMP Produced” value ([1]; Concentration of Peptide 10^5 μg/ml)?
A: 0 picomoles/ml

Q: Which “Concentration of c-GMP Produced” value [1, 3] does the source give for `CC(C)[C@H](NC(=O)[C@H](CC(=O)O)NC(=O)[C@H](CCCCN)NC(=O)[C@@H](N)CCCNC(=N)N)C(=O)N[C@@H](Cc1c[nH]cn1)C(=O)O` [H-ARG-LYS-ASP-VAL-HIS-OH, Arginyl-Lysyl-Aspartyl-Valyl-Histidine] (H-RKDVH-OH) here?
A: 0 picomoles/ml

Q: What about the “Concentration of c-GMP Produced” value [1, 4] of the same compound?
A: 9 picomoles/ml

Q: What about the “Displacement of 125I-TP relative to that caused by thymopoietin self-displacement” value [2] of the same compound?
A: at least 50%

Q: With `CC(C)[C@H](NC(=O)[C@H](CC(=O)O)NC(=O)[C@H](CCCCN)NC(=O)[C@@H](N)CCCNC(=N)N)C(=O)N[C@@H](Cc1ccccc1)C(=O)O` [H-ARG-LYS-ASP-VAL-PHE-OH, Arginyl-Lysyl-Aspartyl-Valyl-Phenylalanine] (H-RKDVF-OH) as the compound, how does the “Concentration of c-GMP Produced” value [1, 3] read?
A: 6 picomoles/ml

Q: And the “Concentration of c-GMP Produced” value [1, 4]?
A: 9 picomoles/ml

Q: And the “Displacement of 125I-TP relative to that caused by thymopoietin self-displacement” value [2]?
A: at least 50%

Q: Which “Result on the cyclic-GMP assay in words” value [1] does the source give for `CC(C)[C@H](NC(=O)[C@H](CC(=O)O)NC(=O)[C@H](CCCCN)NC(=O)[C@@H](N)CCCNC(=N)N)C(=O)N[C@@H](Cc1c[nH]c2ccccc12)C(N)=O` [H-ARG-LYS-ASP-VAL-TRP-NH2, Arginyl-Lysyl-Aspartyl-Valyl-Tryptophan amide] (H-RKDVW-NH2) here?
A: superior results

Q: And the “Displacement of 125I-TP relative to that caused by thymopoietin self-displacement” value [2]?
A: at least 50%

Q: With `CC(C)[C@H](NC(=O)[C@H](CC(=O)O)NC(=O)[C@H](CCCCN)NC(=O)[C@@H](N)CCCNC(=N)N)C(=O)N[C@@H](Cc1c[nH]c2ccccc12)C(=O)O` [H-ARG-LYS-ASP-VAL-TRP-OH, Arginyl-Lysyl-Aspartyl-Valyl-Tryptophan] (H-RKDVW-OH) as the compound, how does the “Result on the cyclic-GMP assay in words” value [1] read?
A: superior results

Q: What about the “Displacement of 125I-TP relative to that caused by thymopoietin self-displacement” value [2] of the same compound?
A: at least 50%

Q: How did the “Result on the cyclic-GMP assay in words” value [1] turn out when `CC(=O)N[C@@H](CCCNC(=N)N)C(=O)NC(C)(C)C(=O)N[C@@H](CC(=O)O)C(=O)N[C@H](C(=O)N[C@@H](Cc1ccccc1)C(N)=O)C(C)C` [N-α-acetyl-ARG-AIB-ASP-VAL-PHE-NH2, Acetyl-Arginyl-α-Aminoisobutyryl-Aspartyl-Valyl-Phenylalaminamide] (Ac-R[Aib]DVF-NH2) was run?
A: superior results

Q: For `CC(=O)N[C@@H](CCCNC(=N)N)C(=O)N1CCC[C@H]1C(=O)N[C@@H](CC(=O)O)C(=O)N[C@H](C(=O)N[C@@H](Cc1ccccc1)C(N)=O)C(C)C` [N-α-acetyl-ARG-PRO-ASP-VAL-PHE-NH2, Acetyl-Arginyl-Prolyl-Aspartyl-Valyl-Phenylalanine-amide] (Ac-RPDVF-NH2), which “Result on the cyclic-GMP assay in words” value [1] is on record?
A: superior results

Q: For `CC(=O)N[C@@H](CCCNC(=N)N)C(=O)N1CCC[C@H]1C(=O)N[C@@H](CC(=O)O)C(=O)N[C@H](C(=O)N[C@@H](Cc1ccccc1)C(=O)O)C(C)C` [N-α-acetyl-ARG-PRO-ASP-VAL-PHE-OH, N^α -Acetyl-Arginyl-Prolyl-Aspartyl-Valyl-Phenylaline] (Ac-RPDVF-OH), which “Concentration of c-GMP Produced” value [1, 3] is on record?
A: 7 picomoles/ml

Q: What about the “Concentration of c-GMP Produced” value [1, 4] of the same compound?
A: 15 picomoles/ml

Q: For `CC(C)[C@H](NC(=O)[C@H](CC(=O)O)NC(=O)[C@H](CCCCN)NC(=O)[C@@H](N)CCCN=C(N)N)C(=O)N[C@@H](Cc1ccc(O)cc1)C(=O)O` [TP-5, H--ARG--LYS--ASP--VAL--TYR--OH, reference compound] (H-RKDVY-OH), which “Concentration of c-GMP Produced” value [1, 3] is on record?
A: 0 picomoles/ml

Q: What about the “Concentration of c-GMP Produced” value [1, 4] of the same compound?
A: 4.5 picomoles/ml

Q: What about the “Concentration of c-GMP Produced” value ([1]; Concentration of Peptide 10^2 μg/ml) of the same compound?
A: 9 picomoles/ml

Q: And the “Concentration of c-GMP Produced” value [1, 5]?
A: 12 picomoles/ml

Q: And the “Concentration of c-GMP Produced” value [1, 6]?
A: 14 picomoles/ml

Q: How did the “Displacement of 125I-TP, in words” value [2] turn out when `C[C@H](N)C(=O)NCC(=O)N[C@H]1CSSC[C@@H](C(=O)O)NC(=O)[C@H](CO)NC(=O)[C@H]([C@@H](C)O)NC(=O)[C@H](Cc2ccccc2)NC(=O)[C@H]([C@@H](C)O)NC(=O)[C@H](CCCCN)NC(=O)[C@H](Cc2c[nH]c3ccccc23)NC(=O)[C@H](Cc2ccccc2)NC(=O)[C@H](Cc2ccccc2)NC(=O)[C@H](CC(N)=O)NC(=O)[C@H](CCCCN)NC1=O` [somatostatin] was run?
A: no detectable displacement

Q: How did the “Result on the cyclic-GMP assay in words” value [1] turn out when “N^α -Acetyl-Arginyl-3,4-dehydro-Prolyl-Aspartyl-Valyl-Tyrosineamide” was run?
A: superior results

Q: How did the “Displacement of 125I-TP, in words” value [2] turn out when “adrenocorticotropic hormone (SYSMEHFRWGKPVGKKRRPVKVYPNGAEDESAEAFPLEF; Corticotropin; UniProt P01189 138-176, looked up) [ACTH]” was run?
A: no detectable displacement

Q: Which “Displacement of 125I-TP, in words” value [2] does the source give for “corticotropin-releasing factor (SEEPPISLDLTFHLLREVLEMARAEQLAQQAHSNRKLMEII; ends and bridges not checked; UniProt P06850 154-194, looked up) [CRF]” here?
A: no detectable displacement

Q: Which “Displacement of 125I-TP, in words” value [2] does the source give for facteur thymique serique [FTS] here?
A: no detectable displacement

Q: How did the “Displacement of 125I-TP, in words” value [2] turn out when growth hormone was run?
A: no detectable displacement

Q: How did the “Displacement of 125I-TP, in words” value [2] turn out when ubiquitin was run?
A: no detectable displacement

Q: Which “Displacement of 125I-TP, in words” value [2] does the source give for “β-endorphin (YGGFMTSEKSQTPLVTLFKNAIIKNAYKKGE; Beta-endorphin; UniProt P01189 237-267, looked up)” here?
A: no detectable displacement
